Data on 24 compounds can be found in patent publication US8889878B2, “Haloalky-substituted amides as insecticides and acaricides” (Bayer CropScience AG, priority 2009, dated 2014).

Series [1] relates to green peach aphid (Myzus persicae). Kind of series: Myzus test (MYZUPE spray treatment), Example 17. The series is classed as in vivo. The note with it: application rate 500 g/ha, china cabbage leaf discs sprayed, after 6 days. Here is the method:
Myzus Test (MYZUPE Spray Treatment)
• Solvent: 78 parts by weight of acetone • 1.5 parts by weight of dimethylformamide • Emulsifier: 0.5 part by weight of alkylaryl polyglycol ether
To prepare an appropriate active ingredient formulation, 1 part by weight of active ingredient is mixed with the stated amounts of solvent and emulsifier, and the concentrate is diluted with emulsifier-containing water to the desired concentration. Leaf discs from china cabbage (Brassica pekinensis) infested by all stages of the green peach aphid (Myzus persicae) are sprayed with an active ingredient formulation of the desired concentration.
After 6 days, the efficacy in % is determined. 100% means that all aphids were killed; 0% means that no aphids were killed.

Series [2] concerns armyworm (Spodoptera frugiperda). Kind of series: Spodoptera frugiperda test (SPODFR spray treatment), Example 15. The series is classed as in vivo. The note with it: application rate 500 g/ha, maize leaf discs sprayed, after 7 days; for pest or weed control at 500 g/ha: Spodoptera frugiperda, foliar, 168 h, read-out: efficacy in %. Put shortly: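 Caterpillars placed on dried, sprayed Zea mays leaf discs; formulation of acetone, dimethylformamide and emulsifier diluted with emulsifier-containing water to test concentration. Percent kill scored on day 7.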

For series [3], the system named is red spider mite (Tetranychus urticae). Description: Tetranychus test, OP-resistant (TETRUR spray treatment), Example 8. In kind it is in vivo. The note with it: application rate 20 g/ha, common bean leaf discs sprayed, after 6 days. The method, then:
Tetranychus Test, OP-resistant (TETRUR Spray Treatment)
(§1) • Solvent: 78.0 parts by weight of acetone • 1.5 parts by weight of dimethylformamide • Emulsifier: 0.5 part by weight of alkylaryl polyglycol ether
To prepare an active ingredient formulation, 1 part by weight of active ingredient is mixed with the stated amounts of solvent and emulsifier, and the concentrate is diluted with emulsifier-containing water to the desired concentration.
Leaf discs from the common bean (Phaseolus vulgaris) infested by all stages of the red spider mite (Tetranychus urticae) are sprayed with an active ingredient formulation of the desired concentration.
After 6 days, the efficacy in % is determined. 100% means that all spider mites were killed; 0% means that no spider mites were killed.

A short description of series [4]: logP by HPLC on reverse-phase column (EEC Directive 79/831 Annex V.A8). The series is classed as physicochemical. Conditions: for chromatographic logP: reverse-phase C18 HPLC column, pH 2.7, HPLC. Here is the method:
The logP values reported in the above Tables and Preparation Examples were determined according to EEC Directive 79/831 Annex V.A8 by HPLC (High Performance Liquid Chromatography) on a reverse-phase column (C18). Temperature 43° C.

In series [5] the test system is mustard beetle (Phaedon cochleariae). Description: Phaedon test (PHAECO spray treatment), Example 16. In kind it is in vivo. The note with it: china cabbage leaf discs sprayed, after the desired time; for efficacy in % / pest or weed control at 500 g/ha: application rate 500 g/ha. Here is the method: Phaedon Test (PHAECO Spray Treatment)
as §1
To prepare an appropriate active ingredient formulation, 1 part by weight of active ingredient is mixed with the stated amounts of solvent and emulsifier, and the concentrate is diluted with emulsifier-containing water to the desired concentration. […]
After the desired time, the efficacy in % is determined. 100% means that all beetle larvae were killed; 0% means that no beetle larvae were killed.

For series [6] the test system is unchanged. Description: Phaedon test (PHAECO spray treatment), Example 7. The series is classed as in vivo. Conditions: application rate 20 g/ha, china cabbage leaf discs sprayed, after 7 days. Put shortly: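 Spray formulation (acetone/DMF with alkylaryl polyglycol ether, diluted in emulsifier-containing water) applied to Chinese cabbage leaf discs, which were dried and then stocked with mustard beetle larvae. Efficacy scored at 7 days as % larvae killed (100% all, 0% none).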

Series [7] concerns Boophilus microplus. Kind of series: Boophilus microplus test (BOOPMI injection), Example 11. In kind it is in vivo. The note with it: application rate 20 μg/animal, injected into abdomen, after 7 days. The method, then:
Boophilus microplus Test (BOOPMI Injection) • Solvent: dimethyl sulphoxide To prepare an appropriate active ingredient formulation, 10 mg of active ingredient are mixed with 0.5 ml of solvent and the concentrate is diluted with solvent to the desired concentration. The active ingredient solution is injected into the abdomen (Boophilus microplus), and the animals are transferred to dishes and stored in a climate-controlled room. The efficacy was assessed by the number of fertile eggs laid. After 7 days, the efficacy in % is determined. 100% means that none of the ticks has laid any fertile eggs.

Where [8] appears, read: Phaedon cochleariae, foliar, read-out: efficacy in %.
[9] abbreviates: C18 reverse phase, 43° C., acidic range pH 2.7, calibration with alkan-2-ones.
The mark [10] stands for this setting: HPLC, C18 reverse phase, 43° C., acidic range pH 2.7, calibration with alkan-2-ones.

`COC(C)(C)NC(=O)c1ccc(/C=C/C(=O)NC(c2cccc(C(F)(F)F)c2)C(F)(F)F)cc1C(F)(F)F` (stereo not shown) [Ia-55]: the efficacy in % in series [1] worked out at 90%; in series [2], 83%; in series [3] it was 100%. Further, the logP entry in series [4] (HPLC-MS) is given as “HPLC-MS: logP = 3.37; mass”.
`O=C(/C=C/c1ccc(NC(=O)C2CC2)cc1)NC(c1cc(Cl)cc(Cl)c1)C(F)(F)F` (stereo not shown) [Ia-1]: the efficacy in % in series [5] is 83%. Further, in series [4] (HPLC-MS), the logP entry is listed as “HPLC-MS: logP = 3.77; mass”.
As for `CC(C)NC(=O)c1ccc(/C=C/C(=O)NC(c2cccc(C(F)(F)F)c2)C(F)(F)F)cc1C(F)(F)F` (stereo not shown) [Ia-62], the efficacy in % was determined as 80% in series [1], 100% in series [3] and 100% in series [6]. Also, in series [4] (HPLC-MS), the logP entry is listed as “HPLC-MS: logP = 3.41; mass”.
Consider `O=C(/C=C/c1ccc(C(=O)NC2CCC2)c(C(F)(F)F)c1)NC(c1cccc(C(F)(F)F)c1)C(F)(F)F` (stereo not shown) [Ia-61], for which the figures for the efficacy in % in series [1], in series [3] and in series [6] were 80%, 100% and 100%, respectively. In addition, in series [4] (HPLC-MS), the logP entry was “HPLC-MS: logP = 3.58; mass”.
`O=C(/C=C/c1ccc(C(=O)NC2(c3ccccn3)CC2)c(C(F)(F)F)c1)NC(c1cccc(C(F)(F)F)c1)C(F)(F)F` (stereo not shown) [Ia-70]: the efficacy in % in series [2] is given as 83%; in series [3], 100%; in series [6] it was 100%. For the same compound, the logP result in series [4] (HPLC-MS) was “HPLC-MS: logP = 3.23; mass”.
On to `CC(=O)NCc1ccc2oc(C(=O)NC(c3cccc(C(F)(F)F)c3)C(F)(F)F)cc2c1` (stereo not shown) [Ic-10, 5-(Acetamidomethyl)-N-{2,2,2-trifluoro-1-[3-(trifluoromethyl)phenyl]ethyl}-1-benzofuran-2-carboxamide], for which the pest or weed control at 500 g/ha in series [5] (setting [8]) turned out to be 100%. Further, the chromatographic logP in series [4] (setting [9]) is 2.8.
Regarding `CC(F)(F)CNC(=O)c1ccc(/C=C/C(=O)NC(c2cccc(C(F)(F)F)c2)C(F)(F)F)cc1C(F)(F)F` (stereo not shown) [Ia-79], the efficacy in % came to 90% in series [1], 90% in series [3] and 100% in series [6]. The logP result in series [4] (HPLC-MS) is recorded as “HPLC-MS: logP = 3.65; mass”.
For `O=C(/C=C/c1ccc(C(=O)NC2CC2)c(C(F)(F)F)c1)NC(c1cncc(C(F)(F)F)c1)C(F)(F)F` (stereo not shown) [Ib-3], the efficacy in % in series [5] is recorded as 83%. In addition, the logP result in series [4] (setting [10]) was “HPLC-MS: logP = 2.83; mass (m/z):”.
For `N#Cc1cc(/C=C/C(=O)NC(c2ccc(Cl)c(Cl)c2)C(F)(F)F)ccc1-n1cncn1` (stereo not shown) [Ia-17], the pest or weed control at 500 g/ha in series [5] (setting [8]) and in series [2] was 100% each time. In series [4] (setting [9]), the chromatographic logP was 3.22.
For `N#Cc1ccc2oc(C(=O)NC(c3cccc(C(F)(F)F)c3)C(F)(F)F)cc2c1` (stereo not shown) [Ic-1, 5-Cyano-N-{2,2,2-trifluoro-1-[3-(trifluoromethyl)phenyl]ethyl}-1-benzofuran-2-carboxamide], the pest or weed control at 500 g/ha in series [5] (setting [8]) and in series [2] was 100% each time. Also, the chromatographic logP in series [4] (setting [9]) stood at 3.63.
For `O=C(/C=C/c1ccc(C(=O)NCC2CC2)c(C(F)(F)F)c1)NC(c1cccc(C(F)(F)F)c1)C(F)(F)F` (stereo not shown) [Ia-78], the efficacy in % is 90% in series [1], 90% in series [3] and 100% in series [6]. For the same compound, the logP result in series [4] (HPLC-MS) is on record as “HPLC-MS: logP = 3.52; mass”.
Turning to `CC(NC(=O)c1ccc(/C=C/C(=O)NC(c2cccc(C(F)(F)F)c2)C(F)(F)F)cc1C(F)(F)F)C1CC1` (stereo not shown) [Ia-56], the efficacy in % in series [2] was found to be 83%; in series [3], 100%; in series [6], 100%. The logP entry in series [4] (HPLC-MS) is given as “HPLC-MS: logP = 3.77; mass”.
Turning to `CC(F)(F)C(NC(=O)/C=C/c1ccc(C(=O)NC2CC2)c(Cl)c1)c1cccc(C(F)(F)F)c1` (stereo not shown) [Id-1, 2-Chloro-N-cyclopropyl-4-[(1E)-3-({2,2-difluoro-1-[3-(trifluoromethyl)phenyl]propyl}amino)-3-oxoprop-1-en-1-yl]benzamide], the pest or weed control at 500 g/ha in series [5] (setting [8]) came out at 100%. The compound further registered a chromatographic logP in series [4] (setting [9]) of 3.04.
Regarding `O=C(/C=C/c1ccc(C(=O)NC2COC2)c(C(F)(F)F)c1)NC(c1cccc(C(F)(F)F)c1)C(F)(F)F` (stereo not shown) [Ia-59], the efficacy in % in series [1] is listed as 100%; in series [2], 83%; in series [3], 100%; in series [6] it was 100%. Moreover, the logP entry in series [4] (HPLC-MS) is “HPLC MS: logP = 2.89; mass”.
Take `O=C(NC(c1cccc(C(F)(F)F)c1)C(F)(F)F)c1cc2cc(Cl)c(C(=O)NC3CC3)cc2[nH]1` (stereo not shown) [Ic-18]: the figures for the efficacy in % in series [3] and in series [6] were 80% and 100%, respectively. Moreover, the logP result in series [4] (setting [10]) was “HPLC-MS: logP = 2.98; mass”. The “efficacy in % (fertile eggs laid)” value in series [7] came out at 100%.
As to `O=C(/C=C/c1ccc(C(=O)NC2CS(=O)(=O)C2)c(Cl)c1)NC(c1cccc(C(F)(F)F)c1)C(F)(F)F` (stereo not shown) [Ia-166, 2-Chloro-N-(1,1-dioxidothietan-3-yl)-4-[(1E)-3-oxo-3-({2,2,2-trifluoro-1-[3-(trifluoromethyl)phenyl]ethyl}amino)prop-1-en-1-yl]benzamide], the pest or weed control at 100 g/ha in series [5] (Phaedon cochleariae, foliar, application rate 100 g/ha, read-out: efficacy in %) stood at 100%. For the same compound, the chromatographic logP in series [4] (setting [9]) was 2.93.
Regarding `Cc1cc(/C=C/C(=O)NC(c2cccc(C(F)(F)F)c2)C(F)(F)F)ccc1C(=O)O` (stereo not shown) [Ia-27], the efficacy in % in series [5] came to 83%. Moreover, the logP result in series [4] (HPLC-MS) is recorded as “HPLC-MS: logP = 3.14; mass”.
In series [5], `O=C(NC(c1cccc(C(F)(F)F)c1)C(F)(F)F)c1cc2cc(SC(F)(F)F)ccc2o1` (stereo not shown) [Ic-2] yielded an efficacy in % of 83%. Also, the logP result in series [4] (setting [10]) is recorded as “HPLC-MS: logP = 4.94; mass”.
Take `O=C(NC1CC1)c1ccc2cc(C(=O)NC(c3cccc(C(F)(F)F)c3)C(F)(F)F)oc2c1` (stereo not shown) [Ic-19, N^6-Cyclopropyl-N^2-{2,2,2-trifluoro-1-[3-(trifluoromethyl)phenyl]ethyl}-1-benzofuran-2,6-dicarboxamide]: the pest or weed control at 500 g/ha in series [5] (setting [8]) was 100%. The chromatographic logP in series [4] (setting [9]) was 3.25.
In turn, `N#Cc1ccc2[nH]c(C(=O)NC(c3cc(Cl)cc(C(F)(F)F)c3)C(F)(F)F)cc2c1` (stereo not shown) [Ic-11] gave an efficacy in % in series [5] of 83%. For the same compound, the logP result in series [4] (setting [10]) is listed as “HPLC-MS: logP = 3.90; mass”.
With `O=C(/C=C/c1ccc(C(=O)NCCOCC(F)(F)F)c(C(F)(F)F)c1)NC(c1cccc(C(F)(F)F)c1)C(F)(F)F` (stereo not shown) [Ia-47], the efficacy in % is 83% in series [2], 90% in series [3] and 100% in series [6]. In series [4] (HPLC-MS), the logP result was “HPLC-MS: logP = 3.58; mass”.
Regarding `O=C(/C=C/c1ccc(C(=O)NC2CCOCC2)c(C(F)(F)F)c1)NC(c1cccc(C(F)(F)F)c1)C(F)(F)F` (stereo not shown) [Ia-69], the efficacy in % in series [1] is 90%; in series [3] it was 100%; in series [6] it was 100%. Besides, the logP result in series [4] (HPLC-MS) was “HPLC-MS: logP = 3.12; mass”.
With `C#CCNC(=O)c1ccc(/C=C/C(=O)NC(c2cccc(C(F)(F)F)c2)C(F)(F)F)cc1C(F)(F)F` (stereo not shown) [Ia-63], the efficacy in % in series [1] stood at 90%; in series [3], 80%; in series [6] it was 100%. Further, in series [4] (HPLC-MS), the logP entry is “HPLC-MS: logP = 3.36; mass”.
`CCOC1(NC(=O)c2ccc(/C=C/C(=O)NC(c3cccc(C(F)(F)F)c3)C(F)(F)F)cc2Cl)CC1` (stereo not shown) [Ia-96]: the efficacy in % in series [3] turned out to be 80%; in series [6] it was 100%. Further, the logP entry in series [4] (HPLC-MS) is reported as “HPLC-MS: logP = 3.47 mass”.
